In patent US8394859B2, “Combretastatin analogs with tubulin binding activity” (Baylor University, priority 2005, dated 2013):
Converted amounts (≈) assume the structure as drawn.

Experiments:
purified tubulin = test: In vitro inhibition of tubulin polymerization; assay type: biochemical; details: purified bovine brain tubulin 1.5 mg/ml, preincubated 15 minutes at 37° C., GTP-induced, 350 nm
Method: IC50 values for tubulin polymerization were determined according to a previously described procedure (Bai et al., Cancer Research, 1996) and are summarized in Table 3 below. Purified tubulin is obtained from bovine brain cells as previously described (Hamel and Lin, Biochemistry, 1984). Various amounts of inhibitor were preincubated for 15 minutes at 37° C. with purified tubulin. After the incubation period, the reaction was cooled and GTP was added to induce tubulin polymerization. Polymerization was then monitored in a Gilford spectrophotometer at 350 nm. The final reaction mixtures (0.25 ml) contained 1.5 mg/ml tubulin, 0.6 mg/ml microtubule-associated proteins (MAPs), 0.5 mM GTP, […], 4% DMSO and 0.1M 4-morpholineethanesulfonate buffer (MES, pH 6.4). IC50 is the amount of inhibitor needed to inhibit tubulin polymerization 50% with respect to the amount of […] that occurs in the absence of inhibitor.

SF-268 = test: In vitro growth inhibition, SRB assay, CNS SF-268; assay type: cell-based; details: Homo sapiens, CNS SF-268, 48 hours incubation, read-out: GI50 (μM/mL) for Cell Line SF-268
Method: (§1) Newly prepared compounds were evaluated for cytotoxic activity against a variety of cell lines derived from human tumors using an assay system similar to the National Cancer Institute procedure previously described (Monks et al., J. Natl. Cancer Inst., 1991). Briefly, the cell suspensions, diluted according to the particular cell type and the expected target cell density (5,000-40,000 cells per well based on cell growth characteristics), were added by pipet (100 ul) to 96-well microtiter plates. Inoculates were allowed a preincubation time of 24-28 hours at 37 C for stabilization. Incubation with the inhibitor compounds lasted for 48 hours in 5% CO2 atmosphere and 100% humidity. Determination of cell growth was performed by in situ fixation of cells, followed by staining with a protein-binding dye sulforhodamine B (SRB), which binds to the basic amino acids of cellular macromolecules. The solubilized stain was measured spectrophotometrically.
(§2) Several compounds were evaluated for cytotoxic activity against […] P388 leukemia cell lines. The effective dose or ED50 value (defined as the effective dosage required for inhibition of 50% of cell growth) was measured. These and additional compounds were evaluated in terms of growth inhibitory activity against several other human cancer cell lines including: central nervous system (“CNS”, SF-268), pancreas (BXPC-3), non-small cell lung cancer (“lung-NSC”, NCI-H460), breast (MCF-7), colon (KM20L2), ovarian (OVCAR-3), and prostate (DU-145). The growth inhibition GI50 (defined as the dosage required for inhibition of tumor cell growth by 50%) is listed for each cell line.

BXPC-3 = test: In vitro growth inhibition, SRB assay, pancreas BXPC-3; assay type: cell-based; details: Homo sapiens, 48 hours incubation, read-out: GI50 (μM/mL) for Cell Line BXP-3
Method: as §1, §2

NCI-H460 = test: In vitro growth inhibition, SRB assay, lung-NSC NCI-H460; assay type: cell-based; details: Homo sapiens, lung-NSC NCI-H460, 48 hours incubation, read-out: GI50 (μM/mL) for Cell Line NCI-H460
Method: as §1, §2

MCF-7 = test: In vitro growth inhibition, SRB assay, breast MCF-7; assay type: cell-based; details: Homo sapiens, MCF7, breast MCF-7, 48 hours incubation, read-out: GI50 (μM/mL) for Cell Line MCF-7
Method: as §1, §2

KM20L2 = test: In vitro growth inhibition, SRB assay, colon KM20L2; assay type: cell-based; details: Homo sapiens, KM-20L2, colon KM20L2, 48 hours incubation, read-out: GI50 (μM/mL) for Cell Line KM20L2
Method: as §1, §2

DU-145 = test: In vitro growth inhibition, SRB assay, prostate DU-145; assay type: cell-based; details: Homo sapiens, prostate DU-145, 48 hours incubation, read-out: GI50 (μM/mL) for Cell Line DU-145
Method: as §1, §2

SMILES	IC50 (purified tubulin)	GI50 (SF-268)	GI50 (BXPC-3)	GI50 (NCI-H460)	GI50 (MCF-7)	GI50 (KM20L2)	GI50 (DU-145)
COc1ccc(C(=O)C2=CCCCc3c2cc(OC)c(OC)c3OC)c(O)c1O [Compound 23, (2,3-Dihydroxy-4-methoxy-phenyl)-(1,2,3-trimethoxy-8,9-dihydro-7H-benzocyclohepten-5-yl)-methanone]	~40 µM	0.009 µg/mL (≈ 0.0225 µM)	0.017 µg/mL (≈ 0.0425 µM)	0.023 µg/mL (≈ 0.0574 µM)	0.0059 µg/mL (≈ 0.0147 µM)	0.031 µg/mL (≈ 0.0774 µM)	0.026 µg/mL (≈ 0.0649 µM)
COc1ccc(C(=O)C2=CCCCc3c2cc(OC)c(OC)c3OC)cc1O [Compound 24, (3-Hydroxy-4-methoxy-phenyl)-(1,2,3-trimethoxy-8,9-dihydro-7H-benzocyclohepten-5-yl)-methanone]	~40 µM	–	–	–	–	–	–
COc1ccc2c(c1)CCCC(c1cc(OC)c(OC)c(OC)c1)=C2 [Compound 1, 3-Methoxy-8-(3,4,5-trimethoxy-phenyl)-6,7-dihydro-5H-benzocycloheptene]	~40 µM	0.28 µg/mL (≈ 0.823 µM)	0.4 µg/mL (≈ 1.18 µM)	0.23 µg/mL (≈ 0.676 µM)	0.32 µg/mL (≈ 0.94 µM)	0.2 µg/mL (≈ 0.588 µM)	0.33 µg/mL (≈ 0.969 µM)
COc1ccc2c(c1O)CCCC(c1cc(OC)c(OC)c(OC)c1)=C2 [Compound 3, 2-Methoxy-6-(3,4,5-trimethoxy-phenyl)-8,9-dihydro-7H-benzocyclohepten-1-ol]	~40 µM	–	–	–	–	–	–
COc1ccc2c(c1)CCCC=C2c1cc(OC)c(OC)c(OC)c1 [Compound 2, 3-Methoxy-9-(3,4,5-trimethoxy-phenyl)-6,7-dihydro-5H-benzocycloheptene]	1.4 ± 0.2 µM	> 10 µg/mL	> 10 µg/mL	> 10 µg/mL	> 10 µg/mL	> 10 µg/mL	> 10 µg/mL
